In ChEMBL document CHEMBL5537205, “Discovery of D25, a Potent and Selective MNK Inhibitor for Sepsis-Associated Acute Spleen Injury” (J Med Chem, 2024):
The source made the active and inactive calls. The rule behind the calls is not given here.

Experiments:
[1] = Oral bioavailability in Sprague-Dawley rat at 20 mg/kg measured after 48 hrs; type: ADME, organism-based; details: in vivo
Mus musculus [2] = assay: Antiinflammatory activity in LPS-induced BALB/c sepsis mouse model assessed as reversal of LPS-induced kidney renal index at 20 mg/kg, po preadministered with compound for 14 days followed by LPS stimulation and measured after 6 hrs; type: functional, organism-based; details: time 342.0 hrs
RAW264.7 [3] = assay: Antiinflammatory activity against LPS-induced mouse RAW264.7 cells assessed as decrease in phosphorylated eIF4E expression at 10 to 20 uM by Western blot analysis; type: functional, cell-based; details: dose 10-20 µM
Mus musculus [4] = assay: Antiinflammatory activity in LPS-induced BALB/c sepsis mouse model assessed as decrease in serum ALT level at 10 to 20 mg/kg, po preadministered with compound for 14 days followed by LPS stimulation and measured after 6 hrs; type: functional, organism-based; details: dose 10-20 mg/kg, time 342.0 hrs
Mus musculus [5] = assay: Antiinflammatory activity in LPS-induced BALB/c sepsis mouse model assessed as decrease in serum IL-1beta level at 20 mg/kg, po preadministered with compound for 14 days followed by LPS stimulation and measured after 6 hrs by ELISA; type: functional, organism-based; details: time 342.0 hrs
Mus musculus [6] = assay: Antiinflammatory activity in LPS-induced BALB/c sepsis mouse model assessed as decrease in serum creatinine level at 10 to 20 mg/kg, po preadministered with compound for 14 days followed by LPS stimulation and measured after 6 hrs; type: functional, organism-based; details: dose 10-20 mg/kg, time 342.0 hrs
[7] = Half-life in Sprague-Dawley rat at 5 mg/kg, iv measured after 48 hrs; type: ADME, organism-based; details: in vivo
RAW264.7 [8] = assay: Antiinflammatory activity against LPS-induced mouse RAW264.7 cells assessed as inhibition of phosphorylated eIF4E expression preincubated for 1 hrs followed by LPS stimulation and measured after 1 hrs by DAPI staining based immunofluorescence analysis; type: functional, cell-based; details: dose 5-20 µM, time 2.0 hrs
Mus musculus [9] = assay: Antiinflammatory activity in LPS-induced BALB/c sepsis mouse model assessed as decrease in inflammatory cells in spleen at 10 to 20 mg/kg, po preadministered with compound for 14 days followed by LPS stimulation and measured after 6 hrs by H&E staining based analysis; type: functional, organism-based; details: dose 10-20 mg/kg, time 342.0 hrs
RAW264.7 [10] = assay: Antiinflammatory activity against LPS-induced mouse RAW264.7 cells assessed as decrease in COX-2 expression at 10 to 20 uM by Western blot analysis; type: functional, cell-based; details: dose 10-20 µM
Mus musculus [11] = assay: Antiinflammatory activity in LPS-induced BALB/c sepsis mouse model assessed as decrease in serum AST level at 10 to 20 mg/kg, po preadministered with compound for 14 days followed by LPS stimulation and measured after 6 hrs; type: functional, organism-based; details: dose 10-20 mg/kg, time 342.0 hrs
Mus musculus [12] = assay: Antiinflammatory activity in LPS-induced BALB/c sepsis mouse model assessed as decrease in iNOS level in spleen at 10 to 20 mg/kg, po preadministered with compound for 14 days followed by LPS stimulation and measured after 6 hrs by Western blot analysis; type: functional, organism-based; details: dose 10-20 mg/kg, time 342.0 hrs
[13] = Cmax in Sprague-Dawley rat at 5 mg/kg, iv measured after 48 hrs; type: ADME, organism-based; details: in vivo
RAW264.7 [14] = assay: Antiinflammatory activity in LPS-induced mouse RAW264.7 cells assessed as reduction in ROS level at 5 to 20 uM pretreated with compound followed by LPS stimulation and measured after 1 hrs by flow cytometric analysis; type: functional, cell-based; details: dose 5-20 µM
[15] = molecular target: T1, MAP kinase-interacting serine/threonine-protein kinase 1 (Homo sapiens, UniProt Q9BUB5); assay: Inhibition of MNK1 (unknown origin) incubated for 60 mins in presence of ATP by HTRF assay
Target sequence in this assay (Q9BUB5 whole entry): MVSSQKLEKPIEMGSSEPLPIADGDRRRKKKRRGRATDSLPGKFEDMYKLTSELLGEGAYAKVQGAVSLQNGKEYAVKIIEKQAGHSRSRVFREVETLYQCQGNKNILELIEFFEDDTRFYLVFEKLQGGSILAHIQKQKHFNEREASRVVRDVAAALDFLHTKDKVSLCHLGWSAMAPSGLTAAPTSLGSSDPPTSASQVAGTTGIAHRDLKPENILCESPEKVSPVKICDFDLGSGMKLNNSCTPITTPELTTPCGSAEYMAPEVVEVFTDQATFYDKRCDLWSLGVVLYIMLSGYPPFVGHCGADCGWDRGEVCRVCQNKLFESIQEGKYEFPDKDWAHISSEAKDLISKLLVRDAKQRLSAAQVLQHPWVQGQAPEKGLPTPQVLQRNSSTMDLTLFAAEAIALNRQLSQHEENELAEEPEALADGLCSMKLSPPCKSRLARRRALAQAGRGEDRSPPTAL

[16] = molecular target: T1, MAP kinase-interacting serine/threonine-protein kinase 1; assay: Inhibition of MNK1 (unknown origin) at 1 uM relative to control
Target sequence in this assay (Q9BUB5 whole entry, looked up): as the sequence (Q9BUB5 whole entry) above

MV4-11 [17] = assay: Antiproliferative activity against human MV4-11 cells assessed as inhibition of cell proliferation incubated for 48 hrs by CCK8 assay; type: functional, cell-based; details: MV4-11, 48 h
Mus musculus [18] = assay: Antiinflammatory activity in LPS-induced BALB/c sepsis mouse model assessed as reversal of LPS-induced liver […] index at 20 mg/kg, po preadministered with compound for 14 days followed by LPS stimulation and measured after 6 hrs; type: functional, organism-based; details: time 342.0 hrs
Mus musculus [19] = assay: Antiinflammatory activity in LPS-induced BALB/c sepsis mouse model assessed as decrease in serum IL-6 level at 20 mg/kg, po preadministered with compound for 14 days followed by LPS stimulation and measured after 6 hrs by ELISA; type: functional, organism-based; details: time 342.0 hrs
RAW264.7 [20] = assay: Antiinflammatory activity against LPS-induced mouse RAW264.7 cells assessed as decrease in iNOS expression at 10 to 20 uM by Western blot analysis; type: functional, cell-based; details: dose 10-20 µM
MV4-11 [21] = assay: Antiproliferative activity against human MV4-11 cells assessed as inhibition of cell proliferation at 20 uM incubated for 48 hrs by CCK8 assay relative to control; type: functional
Mus musculus [22] = assay: Antiinflammatory activity in LPS-induced BALB/c sepsis mouse model assessed as reversal of LPS-induced spleen […] index at 20 mg/kg, po preadministered with compound for 14 days followed by LPS stimulation and measured after 6 hrs; type: functional, organism-based; details: time 342.0 hrs
Mus musculus [23] = assay: Antiinflammatory activity in LPS-induced BALB/c sepsis mouse model assessed as increase in GSH level in serum at 20 mg/kg, po preadministered with compound for 14 days followed by LPS stimulation and measured after 6 hrs; type: functional, organism-based; details: time 342.0 hrs
Mus musculus [24] = assay: Antiinflammatory activity in LPS-induced BALB/c sepsis mouse model assessed as decrease in serum BUN level at 10 to 20 mg/kg, po preadministered with compound for 14 days followed by LPS stimulation and measured after 6 hrs; type: functional, organism-based; details: dose 10-20 mg/kg, time 342.0 hrs
[25] = AUC (0 to t) in Sprague-Dawley rat at 20 mg/kg, po measured after 48 hrs; type: ADME, organism-based; details: in vivo
Mus musculus [26] = assay: Antiinflammatory activity in LPS-induced BALB/c sepsis mouse model assessed as decrease in infiltration of macrophages in spleen at 10 to 20 mg/kg, po preadministered with compound for 14 days followed by LPS stimulation and measured after 6 hrs by immunohistochemistry analysis; type: functional, organism-based; details: dose 10-20 mg/kg, time 342.0 hrs
[27] = Clearance in Sprague-Dawley rat at 5 mg/kg, iv measured after 48 hrs; type: ADME, organism-based; details: in vivo
[28] = molecular target: MAP kinase-interacting serine/threonine-protein kinase 2 (Homo sapiens, UniProt Q9HBH9); assay: Inhibition of MNK2 (unknown origin) incubated for 60 mins in presence of ATP by HTRF assay
Sequence of MAP kinase-interacting serine/threonine-protein kinase 2 (Q9HBH9 whole entry): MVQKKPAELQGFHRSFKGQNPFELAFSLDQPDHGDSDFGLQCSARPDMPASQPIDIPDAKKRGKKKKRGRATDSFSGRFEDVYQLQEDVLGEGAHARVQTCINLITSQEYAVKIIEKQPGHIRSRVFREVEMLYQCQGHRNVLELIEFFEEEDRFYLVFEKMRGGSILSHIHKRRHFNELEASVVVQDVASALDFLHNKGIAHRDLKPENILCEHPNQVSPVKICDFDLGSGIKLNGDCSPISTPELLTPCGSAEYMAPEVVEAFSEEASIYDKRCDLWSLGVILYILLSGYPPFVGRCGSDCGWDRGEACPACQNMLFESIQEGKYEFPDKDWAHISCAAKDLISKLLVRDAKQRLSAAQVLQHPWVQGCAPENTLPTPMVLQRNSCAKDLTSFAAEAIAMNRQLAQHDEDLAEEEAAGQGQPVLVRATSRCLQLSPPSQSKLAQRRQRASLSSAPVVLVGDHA

RAW264.7 [29] = assay: Antiinflammatory activity against LPS-induced mouse RAW264.7 cells assessed as decrease in IL-6 expression at 10 to 20 uM by Western blot analysis; type: functional, cell-based; details: dose 10-20 µM
[30] = Cmax in Sprague-Dawley rat at 20 mg/kg, po measured after 48 hrs; type: ADME, organism-based; details: in vivo
Mus musculus [31] = assay: Antiinflammatory activity in LPS-induced BALB/c sepsis mouse model assessed as decrease in TNF-alpha level in spleen at 10 to 20 mg/kg, po preadministered with compound for 14 days followed by LPS stimulation and measured after 6 hrs by Western blot analysis; type: functional, organism-based; details: dose 10-20 mg/kg, time 342.0 hrs
RAW264.7 [32] = assay: Antiinflammatory activity against mouse RAW264.7 cells assessed as inhibition of LPS-NO production at 20 uM by Griess reagent based assay relative to control; type: functional
Mus musculus [33] = assay: Antiinflammatory activity in LPS-induced BALB/c sepsis mouse model assessed as decrease in IL-6 level in spleen at 10 to 20 mg/kg, po preadministered with compound for 14 days followed by LPS stimulation and measured after 6 hrs by Western blot analysis; type: functional, organism-based; details: dose 10-20 mg/kg, time 342.0 hrs

F [1]: 1.16%
half-life [7]: 5.52 h
Cmax [13]: 3580 ng/mL
IC50 [15]: 121 nM
inhibition [16]: 88.3%
IC50 (MV4-11 [17]): 550 nM
AUCt [25]: 755.3 ng·h/mL
clearance [27]: 52 mL/min/kg
IC50 [28]: 135 nM
Cmax [30]: 26.2 ng/mL
SMILES: c1cc(-c2cc(C3CCNCC3)n[nH]2)c2cc[nH]c2n1
Activity (Mus musculus [2]): Active
Activity (RAW264.7 [3]): Active
Activity (Mus musculus [4]): Active
Activity (Mus musculus [5]): Active
Activity (Mus musculus [6]): Active
Activity (RAW264.7 [8]): Dose-Dependent Effect
Activity (Mus musculus [9]): Active
Activity (RAW264.7 [10]): Active
Activity (Mus musculus [11]): Active
Activity (Mus musculus [12]): Active
Activity (RAW264.7 [14]): Active
Activity (Mus musculus [18]): Active
Activity (Mus musculus [19]): Active
Activity (RAW264.7 [20]): Active
inhibition at 20 µM (MV4-11 [21]): 98.5%
Activity (Mus musculus [22]): Active
Activity (Mus musculus [23]): Active
Activity (Mus musculus [24]): Active
Activity (Mus musculus [26]): Active
Activity (RAW264.7 [29]): Active
Activity (Mus musculus [31]): Active
inhibition at 20 µM (RAW264.7 [32]): 70%
Activity (Mus musculus [33]): Active
